# Results published in patent US20120157401A1, “METHODS FOR TREATING NEUROFIBROMATOSIS” (PTC Therapeutics, Inc., priority 2009, published 2012).
# Entries after “also recorded” stand apart in the source; their conditions may differ.
# Tests used:
# [1] = test system: human VEGF121 and VEGF165; assay: HT1080 xenograft time course: pathologic plasma human VEGF; type: in vivo
# Procedure: Experimental Design. HT1080 cells (5×10^6 cells/mouse) were implanted subcutaneously in male athymic nude mice.
# Tumor size was measured by calipers immediately pre-treatment and at the time of sacrifice on Day 1, 2, or 3 (5 mice per group per day). At sacrifice, the plasma was collected for assay of pathologic human VEGF concentration using an ELISA that recognizes human VEGF121 and VEGF165 (as described in Section 9.1.1.1).
# HT1080 cells = assay: Cell cycle analysis by propidium iodide flow cytometry in HT1080 cells (percent cells in S-phase, Table 24); type: cell-based, human; conditions: HT1080, normoxic, 18 hours
# Procedure: Experimental Design. […] After treatment, cells were trypsinized, and stained with propidium iodide (PI) dye to measure DNA content of individual cells by flow cytometry. Output comprised histograms showing relative DNA content in 10,000 cells.
# While compounds which cause greater than 20% of the cells to accumulate in S-phase at 100 nM are considered active, a larger percentage of cells may be accumulated in S-phase at lower doses depending on the Compound, as shown in FIG. 12 for example.
# CYP2C9 = molecular target: T1, CYP2C9 (Homo sapiens, UniProt P11712); assay: CYP inhibition: CYP2C9; type: in vitro ADME; conditions: human hepatic microsomes or recombinant isoenzymes
# T1 construct: host or cells: human hepatic microsomes or recombinant isoenzyme (not distinguished)
# From the text: It is possible that in certain clinical trial subjects, such agents may need to be adjusted for dosing or replaced by alternative agents that are not metabolized by CYP2D6, particularly when such agents may have a low therapeutic index.
# [2] = 7-day oral toxicity study in rats; type: in vivo
# Procedure: (§1) A battery of genotoxicity studies was also performed. […] The L23 vehicle was used.
# Maximal exposures occurred at a dose of 120 mg/kg/day.
# [3] = 28-day oral toxicity study in rats (14-day recovery); type: in vivo
# Procedure: as §1
# Exposures were maximal at 120 mg/kg/day.
# [4] = 7-day oral toxicity study in dogs; type: in vivo
# physiological VEGF-A = assay: Phase 1 multiple-dose study: plasma and serum physiological VEGF-A concentrations; type: in vivo, human; conditions: healthy volunteers, all doses tested
# From the text: Plasma VEGF Concentrations: Plasma and serum VEGF concentrations and concentration changes from baseline were presented descriptively.
# VEGF-A = assay: Patients: serum and plasma VEGF-A levels; type: in vivo, human
# Procedure: Subjects with NF2 may receive continuous daily treatment with a Compound administered at 100 mg per dose, 2 times a day (BID) for up to 1 year, or longer as appropriate, or until tumor progression. […] Tumor shrinkage or an improvement in hearing are indicators of efficacy.
# Anti-angiogenic activity: Assessing VEGF concentrations provides a relevant and convenient mechanism-specific marker of Compound activity. […] For example, clinically validated ELISA kits (e.g., from R&D Systems, Minneapolis, Minn.) may be used to measure concentrations of VEGF, VEGF-C, P1GF, VEGFR, and inflammatory mediators such as IL-6 and IL-8. CT scan and MRI scan may also be used to assess peritumoral inflammation or edema.
# Blood for VEGF, VEGFR, and Cytokines. Two blood samples (1 for plasma and 1 for serum) may be obtained for assessment of VEGF, VEGFR, and cytokine levels.
# Each sample for plasma collection may comprise 3 mL of venous blood drawn into a […]® tube with K2EDTA as the anticoagulant. Immediately after collection, the tube may be gently inverted 8 to 10 times to mix the anticoagulant with the blood sample. The tube may be stored upright at room temperature until centrifugation; centrifugation and sample processing may be performed within 30 minutes of sample collection. […]
# tumor volume = assay: Patients: tumor volume by MRI; type: in vivo, human
# From the text: Antitumor activity: Previously used radiographic response and progression criteria (see, e.g., Widemann et al., J. Clin. Oncol., January 2006, 24(3):507-16; and di Tomaso, “Preliminary success with anti-angiogenic therapy of NF2-related tumors” (Meeting abstract) 2008 NF Conference, Children's Tumor Foundation, Bonita Springs, Fla., Jun. 6-10, 2008) can be used to evaluate the ability of a Compound to specifically induce tumor shrinkage.
# Timing of Tumor Volume Assessment: Subjects may undergo tumor volume measurement at screening, and at various times throughout the treatment protocol.
# Method of Assessment: The determination of antitumor efficacy may be based on objective tumor assessments made according to volumetric measurement (see Widemann et al., J Clin Oncol. 2006 Jan. 20; 24(3):507-16; di Tomaso et al., Preliminary success with anti-angiogenic therapy of NF2-related tumors. (Meeting abstract). 2008 NF Conference, Children's Tumor Foundation, Bonita Springs, Fla., Jun. 6-10, 2008; Harris et al., Neurosurgery. 2008 June 62(6): 1314-9) and treatment decisions by the physician can be based on these assessments.
# The MRI examinations may be performed using a standard head coil with 1.5-T scanners. […] For VS quantitative assessment, the MRI scans may be transmitted to a Vitrea2 workstation (Vital Images, Minnetonka, Minn.) for image processing and volume calculation.
# T1 sequence (P11712 whole entry): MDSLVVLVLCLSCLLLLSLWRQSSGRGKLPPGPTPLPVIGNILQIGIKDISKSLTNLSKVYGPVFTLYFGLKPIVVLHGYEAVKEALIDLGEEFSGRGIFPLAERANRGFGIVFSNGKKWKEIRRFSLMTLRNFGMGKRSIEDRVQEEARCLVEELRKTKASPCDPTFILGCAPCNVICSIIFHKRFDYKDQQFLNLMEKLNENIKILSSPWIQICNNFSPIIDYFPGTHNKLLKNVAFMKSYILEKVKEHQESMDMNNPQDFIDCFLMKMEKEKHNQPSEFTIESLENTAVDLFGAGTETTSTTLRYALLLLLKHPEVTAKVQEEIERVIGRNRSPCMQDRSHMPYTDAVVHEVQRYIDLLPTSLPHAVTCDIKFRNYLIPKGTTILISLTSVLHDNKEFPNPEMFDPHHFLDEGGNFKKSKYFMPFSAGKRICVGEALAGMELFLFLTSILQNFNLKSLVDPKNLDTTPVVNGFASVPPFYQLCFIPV
smiles,measurement,setting,value
COc1ccc(C2c3[nH]c4ccc(Cl)cc4c3CCN2C(=O)Oc2ccc(Cl)cc2)cc1 (racemic) [Compound #10],Course of pathologic plasma human VEGF concentrations,[1]; Days 2 and 3,continued to decline
same,Pathologic plasma human VEGF levels vs control animals,[1]; by Day 1,numerically lower than in control animals
same,Concentration from which accumulation of cells in S phase is observed,HT1080 cells,≥ 1 nM
same,"Effect on cell cycle distribution (FIG. 12, FIG. 24)","HT1080 cells; Compound #10 0.3-100 nM, Compound 1205 10 nM",induced a redistribution of the cycling characteristics
same,Inhibition of CYP2C9,CYP2C9,No meaningful inhibition
same,Dose of maximal exposures,"[2]; Sprague Dawley, rat, in vivo, po, 7 days",120 mg/kg/day
same,NOAEL for 7-days,[2]; female rats,120 mg/kg/day
same,NOAEL for 7-days,[2]; male rats,40 mg/kg/day
same,Mean prothrombin time (PT) and activated partial thromboplastin time (aPTT),"[2]; rat, in vivo, 120 mg/kg/day",increases
same,NOAEL for 28-days,[3],12 mg/kg/day
same,Dose of maximal exposures,[3]; 28-day oral gavage,120 mg/kg/day
same,Adrenal weights,"[3]; 28-day, all dose levels",Increased
same,Dose of maximal exposures,[4]; 7 consecutive days,30 mg/kg/dose BID
same,Treatment-related clinical findings,"[4]; 7 days, males and females",increased incidence and frequency of soft stools
same,Effect on plasma or serum physiological VEGF-A concentrations,physiological VEGF-A,no clear dose dependent effects; also recorded: No significant alterations
same,Plasma VEGF-A levels in patients (FIG. 35),VEGF-A,reduced
same,Serum VEGF-A levels in patients (FIG. 34),VEGF-A,reduced
same,"Tumor volume, one patient (FIG. 40)",tumor volume,reducing and stabilizing tumor volume
